Measured values: patent US20260151403A1, “NEK7 DEGRADERS AND METHODS OF USE THEREOF” (Captor Therapeutics S.A., priority 2022, published 2026)

Key:
[1] = target: [NEK7]-[compound of formula (I)]-[CRBN/DDB1] complex (Homo sapiens, UniProt Q8TDX7+Q96SW2); test: HTRF ternary complex assay; assay type: binding; details: dose-response, 180 min at 25° C.; read-out: HTRF ternary complex Average pEC50 by molecule (converted)
Method in brief: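 Mix of 24 nM NEK7, 52.8 nM 6×His-CRBN/Strep-DDB1, 3 nM streptavidin-Eu cryptate and 6.67 nM anti-6×His-d2 in PPI Europium detection buffer with 1 mM DTT, dose-response compound, 0.5% DMSO, 180 min at 25° C. TR-FRET (665/620) read, normalized to DMSO background, Hill-slope fit gave EC50/pEC50.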

NEK7 protein = NEK7 protein (Homo sapiens, UniProt Q8TDX7+Q96SW2); test: NEK7 protein degradation determined by Western blot in human PBMC-derived macrophages; assay type: cell-based; details: 24 h; for remaining NEK7 protein amount at 10 µM: densitometric values normalized to loading control, read-out: Amount of NEK7 protein (% of DMSO control); for NEK7 protein degradation (Western blotting, in words): FIG. 1
Sequence of NEK7 protein (Q8TDX7 whole entry): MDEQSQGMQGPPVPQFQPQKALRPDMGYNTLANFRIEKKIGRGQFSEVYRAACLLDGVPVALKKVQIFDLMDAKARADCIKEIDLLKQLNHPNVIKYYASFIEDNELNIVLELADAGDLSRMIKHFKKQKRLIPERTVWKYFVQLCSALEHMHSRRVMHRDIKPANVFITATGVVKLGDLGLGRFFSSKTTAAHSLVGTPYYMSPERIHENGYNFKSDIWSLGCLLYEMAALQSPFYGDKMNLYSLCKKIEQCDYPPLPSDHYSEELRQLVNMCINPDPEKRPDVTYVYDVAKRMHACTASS
Sequence of NEK7 protein (Q96SW2 whole entry): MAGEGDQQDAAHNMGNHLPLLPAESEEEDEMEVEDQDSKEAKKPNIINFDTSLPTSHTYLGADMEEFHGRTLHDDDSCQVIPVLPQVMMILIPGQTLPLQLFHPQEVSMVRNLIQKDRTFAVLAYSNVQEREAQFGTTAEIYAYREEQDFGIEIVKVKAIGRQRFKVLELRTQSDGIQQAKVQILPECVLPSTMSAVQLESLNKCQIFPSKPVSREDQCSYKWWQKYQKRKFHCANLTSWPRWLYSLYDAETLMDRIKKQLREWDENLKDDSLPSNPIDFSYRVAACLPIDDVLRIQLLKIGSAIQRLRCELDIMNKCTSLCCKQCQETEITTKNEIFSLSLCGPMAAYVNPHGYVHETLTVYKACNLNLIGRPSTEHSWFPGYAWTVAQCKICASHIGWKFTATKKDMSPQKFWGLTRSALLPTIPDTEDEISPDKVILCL
Sequence of NEK7 protein (Q16531 whole entry partner): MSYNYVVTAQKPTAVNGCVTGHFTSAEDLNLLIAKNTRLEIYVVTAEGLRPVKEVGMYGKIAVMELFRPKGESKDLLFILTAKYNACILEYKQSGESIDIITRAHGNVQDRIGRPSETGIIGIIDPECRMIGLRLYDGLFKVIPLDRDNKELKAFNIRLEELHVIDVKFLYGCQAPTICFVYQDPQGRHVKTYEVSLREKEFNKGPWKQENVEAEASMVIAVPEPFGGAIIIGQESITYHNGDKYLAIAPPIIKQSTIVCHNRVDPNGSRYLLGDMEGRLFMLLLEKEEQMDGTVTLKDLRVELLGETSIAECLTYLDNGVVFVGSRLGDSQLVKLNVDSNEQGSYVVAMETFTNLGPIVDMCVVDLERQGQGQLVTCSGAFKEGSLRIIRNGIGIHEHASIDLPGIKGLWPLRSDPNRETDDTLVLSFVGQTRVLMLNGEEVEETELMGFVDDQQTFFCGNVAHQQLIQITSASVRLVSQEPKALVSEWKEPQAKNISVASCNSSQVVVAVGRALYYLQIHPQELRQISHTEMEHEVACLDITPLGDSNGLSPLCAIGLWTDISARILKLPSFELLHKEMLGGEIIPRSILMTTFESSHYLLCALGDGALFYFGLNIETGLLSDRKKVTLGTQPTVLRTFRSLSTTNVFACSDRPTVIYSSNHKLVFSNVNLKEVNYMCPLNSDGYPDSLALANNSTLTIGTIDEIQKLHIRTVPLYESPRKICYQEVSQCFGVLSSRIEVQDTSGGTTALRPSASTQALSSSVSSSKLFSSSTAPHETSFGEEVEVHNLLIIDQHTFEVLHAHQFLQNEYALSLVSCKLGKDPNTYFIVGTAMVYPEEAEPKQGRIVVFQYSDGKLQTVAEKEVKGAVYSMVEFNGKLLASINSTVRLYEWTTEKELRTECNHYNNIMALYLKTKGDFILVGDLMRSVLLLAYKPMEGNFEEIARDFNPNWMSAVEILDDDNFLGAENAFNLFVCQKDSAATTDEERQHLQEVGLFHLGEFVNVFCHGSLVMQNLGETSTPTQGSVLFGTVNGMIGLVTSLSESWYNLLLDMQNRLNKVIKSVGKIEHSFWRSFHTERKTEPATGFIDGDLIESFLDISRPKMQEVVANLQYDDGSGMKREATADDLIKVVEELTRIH
Description: (§1) Macrophages were differentiated from human PBMCs isolated from buffy coats from healthy donors.
(§2) Buffy coats were diluted 1:1 (v/v) with DPBS (Sigma-Aldrich) in falcon tubes. After reconstitution, suspension was carefully layered on Histopaque-1077 solution (Sigma-Aldrich) and centrifuged (760×g, RT, 20 min; Brakes Off). PBMCs were collected and washed with DPBS (3× at 350×g, RT, 8 min and 1× at 200×g, RT, 10 min; Brakes On). Subsequently, cells were resuspended in appropriate volume of RPMI 1640 medium (Gibco) supplemented with 10% of heat-inactivated FBS (Gibco) and 1% of Penicillin-Streptomycin Solution 100x (Biowest). Cell viability was measured using trypan blue solution (Sigma-Aldrich).
(§3) 10×10^6 of PBMCs per well were seeded on 6-well plates in complete medium supplemented with 10 ng/ml of M-CSF growth factor (R&D Systems). Differentiation was conducted for a week with medium replacement every 2-3 days. Differentiation of PBMCs into mature macrophages was confirmed by microscopic evaluation and FACS surface staining for the following markers: CD11b, CD14, CD16 (BD Pharmingen). Differentiated macrophages were subjected on NLRP3 inflammasome activation assay.
(§4) Human PBMC-derived macrophages were pre-treated for 24 h with exemplary compounds at the specific concentrations. Dilutions of tested compound were prepared in DMSO. Afterwards cells were primed with 1 μg/ml of LPS (Invivogen) for 3 h and NLRP3 inflammasomes were activated with 5 μM of nigericin solution (Invivogen) for 1 h. Supernatants were centrifuged and stored for ELISA assays and cell lysates were prepared for Western blotting analysis.
Cell lysates from Human PBMC-derived macrophages were prepared by direct lysis in 40 μl RIPA lysis buffer (50 mM Tris·HCl pH 7.4, 150 mM NaCl, 1% NP-40, 0.25% sodium deoxycholate, 0.1% SDS and 1 mM EDTA) supplemented with protease and phosphatase inhibitors (cOmplete EDTA-free Protease Inhibitor Cocktail, Roche; Halt™ Phosphatase Inhibitor Cocktail, Thermo Scientific). Subsequently, lysates were snap frozen in liquid nitrogen and stored in −20° C. Following thawing, lysates were centrifuged at 4° C., 19 000×g for 15 min for supernatants collection. The protein concentration in each sample was determined by BCA method (Pierce BCA Protein Assay Kit, Thermo Fischer Scientific). The absorbance was measured using CLARIOstar Multimode Plate Reader at 562 nm. SDS-PAGE samples were prepared by mixing the lysates with 5×SB and RIPA buffer. Denaturation of the samples was performed by incubation at 95° C. for 5 minutes.
The protein samples were resolved on 4-20% TGX Stain-Free™ protein gels (Bio-Rad) and transferred onto nitrocellulose membranes (Bio-Rad) using Trans-Blot® Turbo system (Bio-Rad). Membranes were blocked in 5% non-dried milk (NFM) in TBS-T (10 mM Tris, 150 mM NaCl, 0.1% Tween-20) for 1 h at room temperature (RT). Membranes were incubated with primary antibodies for NEK7 (O/N, 4° C.) and loading control—β-Actin (1 h, RT) diluted in 5% NFM in TBS-T, followed by incubation with the appropriate horseradish peroxidase (HRP) conjugated secondary antibody diluted in 5% NFM in TBS-T for 1 h in RT. Between each antibody incubation, the membranes were washed in TBS-T. Membranes were developed using SuperSignal West Pico PLUS chemiluminescent substrate (ThermoScientific). Membrane images were captured using Chemi Doc Imager. The analysis was performed in Image Lab software. Densitometric values for NEK7 protein were normalized to the loading control and calculated as a relative to the cells treated with DMSO control.
NEK7-HiBiT degradation results were further confirmed for selected compounds in human PBMC-derived macrophages.

[2] = test system: IL-1β release (NLRP3 inflammasome activation); test: NLRP3 inflammasome activation assay, IL-1β release (ELISA) in human PBMC-derived macrophages; assay type: cell-based; details: 10 μM, 24 h pre-treatment, then LPS 3 h and nigericin 1 h
Description: as §1, §2, §3, §4
(§5) IL-1β and IL-18 level was quantified using ELISA assays (R&D Systems) according to the manufacturer's protocol. 96-well plates were coated overnight with appropriate capture antibodies. Plates were blocked and incubated at RT for a minimum of 1 h. Samples or standards were added and incubated for 2 h in RT. Next, biotinylated anti-human IL-1β or IL-18 detection antibodies were added for 2 h in RT. Strepatividin-HRP solution was added for 20 min of incubation. Subsequently, substrate solution was added for 20 min. Between each step washing procedure was performed. The reaction was stopped, and optical density was determined using CLARIOstar Multimode Plate reader set to 450 nm with wavelength correction set to 570 nm. The analysis was performed with GraphPad Prism Software and Excel spreadsheet.
(§6) To evaluate compound effect on inflammasome activation (measured as IL-1β and IL-18 release), human PBMC-derived macrophages were treated with individual compounds for 24 h prior to inflammasome activation. As shown in the Table 4 and in FIGS. 2A and 2B, after 24 h of pre-treatment with exemplary compounds, a dose-dependent decrease of cytokines level was noted.

[3] = test system: IL-18 release (NLRP3 inflammasome activation); test: NLRP3 inflammasome activation assay, IL-18 release (ELISA) in human PBMC-derived macrophages; assay type: cell-based; details: 10 μM, 24 h pre-treatment, then LPS 3 h and nigericin 1 h
Description: as §1, §2, §3, §4, §5, §6

Sequence of [NEK7]-[compound of formula (I)]-[CRBN/DDB1] complex (Q8TDX7 whole entry): as the sequence (Q8TDX7 whole entry) above
Sequence of [NEK7]-[compound of formula (I)]-[CRBN/DDB1] complex (Q96SW2 whole entry): as the sequence (Q96SW2 whole entry) above
Sequence of [NEK7]-[compound of formula (I)]-[CRBN/DDB1] complex (Q16531 whole entry partner): as the sequence (Q16531 whole entry partner) above

## O=C1CCC(N2Cc3cc(-c4ccccn4)ccc3C2=O)C(=O)N1 (stereo not drawn) [2(2), 3-(1-oxo-5-(pyridin-2-yl)isoindolin-2-yl)piperidine-2,6-dione]
[1]
  EC50: 316 to 1000 nM
NEK7 protein
  remaining NEK7 protein amount at 10 µM: 40 to 75%

## O=C1CCC(N2Cc3cc(-c4ccc(-c5ccccc5)cn4)ccc3C2=O)C(=O)N1 (stereo not drawn) [4(2), 3-(1-oxo-5-(5-phenylpyridin-2-yl)isoindolin-2-yl)piperidine-2,6-dione]
[1]
  EC50: 100 to 316 nM
NEK7 protein
  remaining NEK7 protein amount at 10 µM: 40 to 75%
[2]
  Level of released IL-1β (% of DMSO control): D (Levels of released cytokines ≥ 75%)
[3]
  Level of released IL-18 (% of DMSO control): B (Levels of released cytokines > 25% and ≤50%)

## O=C1CCC(N2Cc3cc(C4CCCCN4)ccc3C2=O)C(=O)N1 (stereo not drawn) [Compound 2, 3-(1-oxo-5-(piperidin-2-yl)isoindolin-2-yl)piperidine-2,6-dione]
[1]
  EC50: 316 to 1000 nM
NEK7 protein
  remaining NEK7 protein amount at 10 µM: 10 to 40%
  NEK7 protein degradation (Western blotting, in words): NEK7 protein degradation
[2]
  Level of released IL-1β (% of DMSO control): B (Levels of released cytokines > 25% and ≤50%)
[3]
  Level of released IL-18 (% of DMSO control): A (Levels of released cytokines ≤ 25%)

## Cc1c(C2CCCCN2)ccc2c1CN(C1CCC(=O)NC1=O)C2=O (stereo not drawn) [Compound 19, 3-(4-methyl-1-oxo-5-(piperidin-2-yl)isoindolin-2-yl)piperidine-2,6-dione]
[1]
  EC50: > 3160 nM
NEK7 protein
  remaining NEK7 protein amount at 10 µM: 40 to 75%
[2]
  Level of released IL-1β (% of DMSO control): C (Levels of released cytokines > 50% and <75%)
[3]
  Level of released IL-18 (% of DMSO control): C (Levels of released cytokines > 50% and <75%)

## O=C1CCC(N2Cc3cc(C4CCCCN4)c(F)cc3C2=O)C(=O)N1 (stereo not drawn) [Compound 23, 3-(6-fluoro-1-oxo-5-(piperidin-2-yl)isoindolin-2-yl)piperidine-2,6-dione]
[1]
  EC50: > 3160 nM
NEK7 protein
  remaining NEK7 protein amount at 10 µM: 40 to 75%

## CC1c2cc(C3CCCCN3)ccc2C(=O)N1C1CCC(=O)NC1=O (stereo not drawn) [Compound 25, 3-(3-methyl-1-oxo-5-(piperidin-2-yl)isoindolin-2-yl)piperidine-2,6-dione]
[1]
  EC50: 316 to 1000 nM
NEK7 protein
  remaining NEK7 protein amount at 10 µM: ≤ 10%
  NEK7 protein degradation (Western blotting, in words): NEK7 protein degradation
[2]
  Level of released IL-1β (% of DMSO control): A (Levels of released cytokines ≤ 25%)
[3]
  Level of released IL-18 (% of DMSO control): A (Levels of released cytokines ≤ 25%)

## CC1c2cc(C3CCCCO3)ccc2C(=O)N1C1CCC(=O)NC1=O (stereo not drawn) [Compound 64, 3-(3-methyl-1-oxo-5-(tetrahydro-2H-pyran-2-yl)isoindolin-2-yl)piperidine-2,6-dione]
[1]
  EC50: 316 to 1000 nM
NEK7 protein
  remaining NEK7 protein amount at 10 µM: ≤ 10%
  NEK7 protein degradation (Western blotting, in words): NEK7 protein degradation
[2]
  Level of released IL-1β (% of DMSO control): A (Levels of released cytokines ≤ 25%)
[3]
  Level of released IL-18 (% of DMSO control): A (Levels of released cytokines ≤ 25%)
